Where two headings read alike, the source gives them in different places.
How the values were obtained:
[1] = biological target: IDH1-R132H recombinant protein (Homo sapiens (Human), UniProt O75874, R132H); assay: IDH1-R132H enzymatic assay (inhibition of NADPH consumption, diaphorase/resazurin readout); type: biochemical; conditions: read-out: Enzyme IDH1 R132H IC50 (Range)
In short: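 Compound was preincubated 15 min at 25 °C with 30 nM IDH1-R132H or 10 nM IDH1-R132C in Tris pH 7.5 buffer with MgCl2, BSA and Triton X-100. Reaction with 2 mM α-ketoglutarate and 20 μM NADPH (solution concentrations) ran 45 min at 25 °C. Remaining NADPH was detected via diaphorase/resazurin fluorescence (ex 535/em 590 nm), and IC50 came from four-parameter fits.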

[2] = biological target: IDH1-R132C recombinant protein (Homo sapiens (Human), UniProt O75874, R132C); assay: IDH1-R132C enzymatic assay (inhibition of NADPH consumption, diaphorase/resazurin readout); type: biochemical; conditions: read-out: Enzyme IDH1 R132C IC50 (Range)
Description: Assays were performed in a 384-well black plate. An aliquot of 250 nL of compound was incubated with 10 μL of 30 nM IDH1-R132H or 10 nM IDH1-R132C recombinant protein in assay buffer (50 mM Tris pH=7.5, 150 mM NaCl, 5 mM MgCl2, 0.1% (w/v) Bovine Serum Albumin, and 0.01% Triton X-100) in each well at 25° C. for 15 minutes. After the plate was centrifuged briefly, an aliquot of 10 μL of 2 mM α-ketoglutarate and 20 μM NADPH solution prepared in assay buffer was then added to each well and the reaction was maintained at 25° C. for 45 minutes. An aliquot of 10 μL of diaphorase solution (0.15 U/mL diaphorase and 30 µM Resazurin in assay buffer) was added to each well. The plate was maintained at 25° C. for 15 minutes and then read on a plate reader with excitation and emission wavelengths at 535 nm and 590 nm, respectively. The IC50 of a given compound was calculated by fitting the dose response curve of inhibition of NADPH consumption at a given concentration with the four parameter logistic equation.

[3] = tested on: HCT116 isogenic IDH1-R132H mutant cells; assay: Cellular 2-HG assay using HCT116 mutant IDH1 cells (R132H), RapidFire mass spectrometry; type: cell-based; conditions: Homo sapiens, read-out: HCT116 IDH1 R132H IC50 (Range)
Description: (§1) Example 106—Cellular 2-HG assay using HCT116 mutant IDH1 cells
(§2) HCT116 isogenic IDH1-R132H and IDH1-R132C mutant cells were cultured in growth media (McCoy's 5 A, 10% fetal bovine serum, 1× antibiotic-antimycotic solution and 0.3 mg/mL G418) in 5% CO2 in an incubator at 37° C. To prepare the assay, cells were trypsinized and resuspended in assay media (McCoy's 5 A with no L-glutamine, 10% fetal bovine serum, 1× antibiotic-antimycotic solution and 0.3 mg/mL G418). An aliquot of 10,000 cells/100 μL was transferred to each well of a clear 96-well tissue culture plate. The cells were incubated in 5% CO2 at 37° C. in an incubator overnight to allow for proper cell attachment. An aliquot of 50 μL of compound containing assay media were then added to each well and the assay plate was kept in 5% CO2 at 37° C. in an incubator for 24 hours. The media was then removed from each well and 150 μL of a methanol/water mixture (80/20 v/v) was added to each well. The plates were kept at −80° C. freezer overnight to allow for complete cell lysis. An aliquot of 125 μL of extracted supernatant was analyzed by RapidFire high-throughout-mass spectrometry (Agilent) to determine the cellular 2-HG level. The IC50 of a given compound was calculated by fitting the dose response curve of cellular 2-HG inhibition at a given concentration with the four parameter logistic equation.

[4] = tested on: HCT116 isogenic IDH1-R132C mutant cells; assay: Cellular 2-HG assay using HCT116 mutant IDH1 cells (R132C), RapidFire mass spectrometry; type: cell-based; conditions: Homo sapiens, read-out: HCT116 IDH1 R132C IC50 (Range)
Description: as §1, §2

[5] = HCT-116, cellular 2-HG level, HCT116 IDH1-R132H cells, 24 hours
[6] = HCT-116, cellular 2-HG level, HCT116 IDH1-R132C cells, 24 hours

Sequence of IDH1-R132C recombinant protein (O75874 whole entry R132C): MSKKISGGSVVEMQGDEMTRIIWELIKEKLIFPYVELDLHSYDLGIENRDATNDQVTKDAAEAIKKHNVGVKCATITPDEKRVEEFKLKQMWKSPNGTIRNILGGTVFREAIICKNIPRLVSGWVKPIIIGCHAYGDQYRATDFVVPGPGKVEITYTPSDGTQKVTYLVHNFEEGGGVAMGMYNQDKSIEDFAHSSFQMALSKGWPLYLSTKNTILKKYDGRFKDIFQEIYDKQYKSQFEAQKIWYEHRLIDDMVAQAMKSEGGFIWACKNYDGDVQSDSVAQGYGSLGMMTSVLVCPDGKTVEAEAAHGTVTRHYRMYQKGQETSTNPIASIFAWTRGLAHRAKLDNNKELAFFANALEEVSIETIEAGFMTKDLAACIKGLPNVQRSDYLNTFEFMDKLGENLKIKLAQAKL
Sequence of IDH1-R132H recombinant protein (O75874 whole entry R132H): as the sequence (O75874 whole entry R132C) above, with C132H counted along it

| IC50 [1] [nM] | IC50 [2] [nM] | IC50 [3, 5] [nM] | IC50 [4, 6] [nM] | Structure (SMILES) | IC50 ([3]; HCT-116, 24 h) [nM] | IC50 ([4]; HCT-116, 24 h) [nM] |
| --- | --- | --- | --- | --- | --- | --- |
| < 100 | 100 to 1000 | < 100 | 100 to 1000 | COc1nc(N[C@@H](C)c2cc3cc(Cl)c(Br)cc3[nH]c2=O)ncc1C#N [Compound I-162, (S)-2-((1-(7-bromo-6-chloro-2-oxo-1,2-dihydroquinolin-3-yl)ethyl)amino)-4-methoxypyrimidine-5-carbonitrile] |  |  |
| < 100 | 100 to 1000 | < 100 | 100 to 1000 | C[C@H](Nc1nccc(-c2cncn2CC(F)(F)F)n1)c1cc2cc(Cl)ccc2[nH]c1=O [Compound I-60, (S)-6-Chloro-3-(1-((4-(1-(2,2,2-trifluoroethyl)-1H-imidazol-5-yl)pyrimidin-2-yl)amino)ethyl)quinolin-2(1H)-one] |  |  |
| 100 to 1000 | 1000 to 10000 | 100 to 1000 | 1000 to 10000 | C[C@H](Nc1nccc(-c2ccn[nH]2)n1)c1cc2cc(Cl)ccc2[nH]c1=O [Compound I-87] |  |  |
| < 100 | 100 to 1000 | 100 to 1000 | 100 to 1000 | CC(C)n1cncc1-c1ccnc(N[C@@H](C)c2cc3cc(Cl)ccc3[nH]c2=O)n1 [Compound I-64, (S)-6-chloro-3-(1-((4-(1-isopropyl-1H-imidazol-5-yl)pyrimidin-2-yl)amino)ethyl) quinolin-2(1H)-one] |  |  |
| 100 to 1000 | 100 to 1000 | 100 to 1000 | 1000 to 10000 | C[C@H](Nc1nccc(-c2ccncc2)n1)c1cc2cc(Cl)ccc2[nH]c1=O [Compound I-95] |  |  |
| < 100 | < 100 | < 100 | < 100 | COc1nc(N[C@@H](C)c2cc3cc(Cl)c(OCC4CC4)cc3[nH]c2=O)ncc1C#N [Compound I-159, (S)-2-((1-(6-chloro-7-(Cyclopropylmethoxy)-2-oxo-1,2-dihydroquinolin-3-yl)ethyl)amino)-4-methoxypyrimidine-5-carbonitrile] |  |  |
| 100 to 1000 | 100 to 1000 | 100 to 1000 | 1000 to 10000 | C[C@H](Nc1nccc(-c2cncc3ccccc23)n1)c1cc2cc(Cl)ccc2[nH]c1=O [Compound I-92] |  |  |
| < 100 | < 100 | < 100 | < 100 | COC(=O)Nc1ccnc(N[C@@H](C)c2cc3cc(Cl)c(OCc4ccccn4)cc3[nH]c2=O)n1 [Compound I-154, (S)-methyl (2-((1-(6-Chloro-2-oxo-7-(pyridin-2-ylmethoxy)-1,2-dihydroquinolin-3-yl)ethyl)amino)pyrimidin-4-yl)carbamate] |  |  |
| < 100 | 100 to 1000 | 100 to 1000 | 100 to 1000 | C[C@H](Nc1nccc(N2CCNC2=O)n1)c1cc2cc(Cl)ccc2[nH]c1=O [Compound I-123, (S)-6-Chloro-3-(1-((4-(2-oxoimidazolidin-1-yl)pyrimidin-2-yl)amino)ethyl)quinolin-2(1H)-one] |  |  |
| < 100 | < 100 | < 100 | 100 to 1000 | C[C@H](Nc1nccc(-c2cncn2Cc2ccccc2)n1)c1cc2cc(Cl)ccc2[nH]c1=O [Compound I-68] |  |  |
| 100 to 1000 | 1000 to 10000 | 100 to 1000 | 1000 to 10000 | C[C@H](Nc1nccc([S@@+](C)[O-])n1)c1cc2cc(Cl)ccc2[nH]c1=O [Compound I-112] |  |  |
| < 100 | 100 to 1000 | < 100 | 100 to 1000 | COc1nc(N[C@@H](C)c2cc3cc(Cl)cc(F)c3[nH]c2=O)ncc1C#N [Compound I-161, (S)-2-((1-(6-Chloro-8-fluoro-2-oxo-1,2-dihydroquinolin-3-yl)ethyl)amino)-4-methoxy pyrimidine-5-carbonitrile] |  |  |
| 100 to 1000 | 100 to 1000 | 100 to 1000 | 100 to 1000 | C[C@H](Nc1nccc(-n2cnc3c2CCC3)n1)c1cc2cc(Cl)ccc2[nH]c1=O [Compound I-55] |  |  |
| 100 to 1000 | 100 to 1000 | 100 to 1000 | 1000 to 10000 | CC(C)CNC(=O)c1ccnc(N[C@@H](C)c2cc3cc(Cl)ccc3[nH]c2=O)n1 [Compound I-116] |  |  |
| < 100 | 1000 to 10000 | 100 to 1000 | 1000 to 10000 | COc1nc(N[C@@H](C)c2cc3cc(Cl)cnc3[nH]c2=O)ncc1C#N [Compound I-155, (S)-2-((1-(6-chloro-2-oxo-1,2-dihydro-1,8-naphthyridin-3-yl)ethyl)amino)-4-methoxy pyrimidine-5-carbonitrile] |  |  |
| < 100 | 100 to 1000 | 100 to 1000 | 1000 to 10000 | CC(C)n1nccc1-c1ccnc(N[C@@H](C)c2cc3cc(Cl)ccc3[nH]c2=O)n1 [Compound I-75] |  |  |
| < 100 | 1000 to 10000 | 1000 to 10000 | 1000 to 10000 | Cc1oncc1-c1ccnc(N[C@@H](C)c2cc3cc(Cl)ccc3[nH]c2=O)n1 [Compound I-58, (S)-6-Chloro-3-(1-((4-(5-methylisoxazol-4-yl)pyrimidin-2-yl)amino)ethyl)quinolin-2(1H)-one] |  |  |
| < 100 | < 100 | < 100 | < 100 | CC(=O)Nc1ccnc(NC(C)c2cc3cc(Cl)c(OCc4ccccn4)cc3[nH]c2=O)n1 (centres unmarked) [Compound I-149] |  |  |
| < 100 | < 100 | < 100 | < 100 | COc1nc(N[C@@H](C)c2cc3cc(Cl)c(OCc4ccccn4)cc3[nH]c2=O)ncc1C#N [Compound I-151, (S)-2-((1-(6-Chloro-2-oxo-7-(pyridin-2-ylmethoxy)-1,2-dihydroquinolin-3-yl)ethyl)amino)-4-methoxypyrimidine-5-carbonitrile] |  |  |
| < 100 | < 100 | < 100 | < 100 | CC(=O)Nc1ccnc(N[C@@H](C)c2cc3cc(Cl)ccc3[nH]c2=O)n1 [Compound I-25, (S)—N-(2-((1-(6-Chloro-2-oxo-1,2-dihydroquinolin-3-yl)ethyl)amino)pyrimidin-4-yl)acetamide] |  |  |
| 100 to 1000 | 100 to 1000 | < 100 | 1000 to 10000 | C[C@H](Nc1nccc(-c2cccnc2)n1)c1cc2cc(Cl)ccc2[nH]c1=O [Compound I-94] |  |  |
| < 100 | 100 to 1000 | < 100 | < 100 | C[C@H](Nc1nccc(-c2cncn2C)n1)c1cc2cc(Cl)ccc2[nH]c1=O [Compound I-71] |  |  |
| 100 to 1000 | 1000 to 10000 | 1000 to 10000 | 1000 to 10000 | C[C@H](Nc1nccc(-n2ccnc2)n1)c1cc2cc(Cl)ccc2[nH]c1=O [Compound I-54] |  |  |

| Structure (SMILES) | IC50 [1] [nM] | IC50 [2] [nM] | IC50 [3, 5] [nM] | IC50 [4, 6] [nM] | IC50 ([3]; HCT-116, 24 h) [nM] | IC50 ([4]; HCT-116, 24 h) [nM] |
| --- | --- | --- | --- | --- | --- | --- |
| COc1nc(NC(C)c2cc3cc(Cl)c(F)cc3[nH]c2=O)ncc1C#N (centres unmarked) [Compound I-142] | < 100 | 100 to 1000 |  |  | < 100 | 100 to 1000 |
| COc1nc(N[C@@H](C)c2cc3cc(Cl)c(F)cc3[nH]c2=O)ncc1C#N [Compound I-181] | < 100 | 100 to 1000 |  |  | 100 to 1000 | 100 to 1000 |
| COc1nc(N[C@H](C)c2nc3cc(Cl)ccc3[nH]c2=O)ncc1C#N [Compound I-157] | 100 to 1000 | 1000 to 10000 |  |  | < 100 | 100 to 1000 |

Reference: patent US10280150B2 (FORMA TM2, Inc., priority 2014, dated 2019)
